Laboratory results taken from article PMC7961048, “Hierarchized phosphotarget binding by the seven human 14-3-3 isoforms” (Nature Communications, 2021).
Starred links: 1 amine or outer side, 2 acyl side, 3 side chain; linkers in the order of their positions; H or OH if unused. Non-standard residues stand in square brackets, D forms with d. Residues, ends and D or L forms follow the SMILES beside them. *: point of attachment. X1 = O=C(CCCC[C@@H]1SC[C@@H]2NC(=O)N[C@@H]21)NCCCOCCOCCOCCCN*; pT = C[C@@H](OP(=O)(O)O)[C@H](N)C(=O)O; Suc = O=C(CCC(=O)[*:2])[*:1]

What was measured:
Type in all cases: binding
[1] = molecular target: T1, 14-3-3ζ (Homo sapiens, UniProt P63104); assay: biochemical
T1 construct: Plasmids containing the cDNAs of the full-length 14-3-3 isoforms ε, γ, and ζ were received; made in house; host or cells: E. coli BL21(DE3)
T1 sequence (P63104 1-245): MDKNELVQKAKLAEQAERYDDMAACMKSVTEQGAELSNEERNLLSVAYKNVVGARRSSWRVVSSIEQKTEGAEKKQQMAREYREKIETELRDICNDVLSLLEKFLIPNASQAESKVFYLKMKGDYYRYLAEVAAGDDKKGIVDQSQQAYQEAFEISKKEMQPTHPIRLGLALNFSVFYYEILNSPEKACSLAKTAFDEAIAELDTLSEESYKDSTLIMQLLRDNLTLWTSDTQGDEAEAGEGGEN
Description: (§1) The seven full-length human 14-3-3 isoforms, produced as fusions to a maltose-binding protein (MBP), were analyzed for their interaction with four phospho-PBMs from E6 proteins of HPV types 16, 18, 33, and 35 belonging to subgroups 1 and 2 (as defined in Supplementary Fig. 1). For comparison, we also measured two non-viral phospho-PBMs originating from protein kinase RSK1[28]. We used a competitive fluorescence polarization (FP) assay that measures the displacement of a fluorescent tracer phosphopeptide (here, derived from the HSPB6 protein) bound beforehand to 14-3-3, by an increasing amount of the peptide of interest.
(§2) For affinity measurements, full-length human 14-3-3 constructs with an N-terminal MBP fusion were used. Plasmids containing the cDNAs of the full-length 14-3-3 isoforms ε, γ, and ζ were received from Prof. Lawrence Banks. cDNAs encoding other full-length 14-3-3 isoforms β, τ, η, and σ were obtained as codon-optimized for E. coli expression synthetic genes from IDT Technologies (Coralville, Iowa, USA). All 14-3-3 isoforms were fused via a three-alanine linker to the C terminus of a mutant MBP carrying the following amino acid substitutions facilitating crystallization: D83A, K84A, K240A, E360A, K363A, and D364A[62]. All resulting clones were verified by sequencing. The MBP-fused proteins were expressed in E. coli BL21(DE3) with IPTG induction. Proteins were affinity purified on an amylose column and were further purified by ion-exchange chromatography (HiTrap Q HP, GE Healthcare). Unfused 14-3-3 isoforms devoid of the flexible C-terminal tails (14-3-3βΔC, 14-3-3τΔC 14-3-3εΔC) were expressed using IPTG induction and purified by subtractive IMAC and SEC[40]. Protein concentrations were determined by UV spectroscopy. The samples were supplemented with glycerol and TCEP before aliquoting and freezing in liquid nitrogen.
(§3) Unless otherwise stated, all phosphopeptide-binding measurements were performed using full-length 14-3-3 proteins fused to the C terminus of MBP, favoring optimal solubility and a standardized parallel purification scheme.
(§4) FP was measured with a PHERAstar (BMG Labtech, Offenburg, Germany) microplate reader by using 485 ± 20 and 528 ± 20 nm band-pass filters (for excitation and emission, respectively). In direct FP measurements, a dilution series of the 14-3-3 protein was prepared in 96-well plates (96-well skirted PCR plate, 4ti-0740, 4titude, Wotton, UK) in a 20 mM HEPES pH 7.5 buffer containing 150 mM NaCl, 0.5 mM TCEP, 0.01% Tween 20, 50 nM fluorescently labeled fpB6 peptide, and 100 μM FSC, if indicated. The volume of the dilution series was 40 μl, which was later divided into three technical replicates of 10 μl upon transferring to 384-well micro-plates (low binding microplate, 384 well, E18063G5, Greiner Bio-One, Kremsmünster, Austria). In total, polarization of the probe was measured at eight different protein concentrations (whereas one contained no protein and corresponded to the free peptide). In competitive FP measurements, the same buffer was supplemented with the protein to achieve a complex formation of 60–80%, based on the direct titration. Then, this mixture was used for creating a dilution series of the unlabeled competitor (i.e., the studied peptides) and the measurement was carried out identically as in the direct experiment.
(§5) All FP experiments were done in triplicates. Analysis of FP experiments were carried out using ProFit, an in-house developed, Python-based fitting program. ProFit utilizes a Monte Carlo approach to take into account experimental variability. It generates hundreds of simulated datasets, based on the experimental data variance and fits direct and competitive measurements in pairs.

[2] = molecular target: seven human 14-3-3 isoforms; assay: Affinities averaged or compared across the 14-3-3 family (ΔΔGav, KD ratios, affinity maps); conditions: for KD ratios, compared to LRRK2 pS910/pS935, average: average over the isoforms; for binding to 14-3-3 proteins: competitive FP, seven MBP-fused full-length 14-3-3 isoforms, result in words
From the text: Former studies have measured the binding of the seven human 14-3-3 isoforms to unrelated phospho-motifs derived from Cystic Fibrosis Transmembrane Conductance Regulator (CFTR), Leucine-Rich Repeat Kinase 2 (LRRK2), Potassium channel subfamily K members (TASK1/3), C-Raf, the p65 subunit of the NF-κB transcription factor, and from Ubiquitin carboxyl-terminal hydrolase 8 (USP8), representing a wide variety of different 14-3-3-binding motifs, including C-terminal, internal, monovalent, or divalent motifs[40],[44]–[48].
(gray background). The color scale is either based on affinity values or on KD ratios. √ denotes affinities weaker than the limit of quantitation of the experimental assays. b Same map as in a, normalized to the strongest 14-3-3-binding motif. […] Source data are provided as a Source Data file.
All binding data and the obtained fits are provided as Supplementary Data File 1.

[3] = molecular target: T2, 14-3-3η (Homo sapiens, UniProt Q04917); assay: biochemical
T2 construct: cDNAs encoding other full-length 14-3-3 isoforms β, τ, η, and σ were obtained as codon-optimized; made in house; host or cells: E. coli BL21(DE3)
T2 sequence (Q04917 1-246): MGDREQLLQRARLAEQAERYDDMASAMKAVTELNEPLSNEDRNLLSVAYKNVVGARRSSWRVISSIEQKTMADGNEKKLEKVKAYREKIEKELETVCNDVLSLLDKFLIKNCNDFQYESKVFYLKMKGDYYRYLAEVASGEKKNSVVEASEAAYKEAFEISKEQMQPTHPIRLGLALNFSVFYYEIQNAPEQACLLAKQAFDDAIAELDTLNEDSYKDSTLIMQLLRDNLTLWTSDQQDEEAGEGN
Description: as §1, §2, §3, §4, §5

CC(C)C[C@H](NC(=O)[C@H](CCCNC(=N)N)NC(=O)CCC(=O)NCCCOCCOCCOCCCNC(=O)CCCC[C@@H]1SC[C@@H]2NC(=O)N[C@@H]21)C(=O)N[C@@H](CCC(N)=O)C(=O)N[C@@H](CCCNC(=N)N)C(=O)N[C@@H](CCCNC(=N)N)C(=O)N[C@@H](CCCNC(=N)N)C(=O)N[C@@H](CCC(=O)O)C(=O)N[C@H](C(=O)N[C@@H](CCC(N)=O)C(=O)N[C@H](C(=O)O)C(C)C)[C@@H](C)OP(=O)(O)O [pHPV18E6]
Kd [1]: 22.4 ± 1.3 µM
KD ratios, compared to LRRK2 pS910/pS935, 14-3-3β ([2]; Figure 4 panel b): 2000.00
KD ratios, compared to LRRK2 pS910/pS935, 14-3-3γ ([2]; Figure 4 panel b): 3437.50
KD ratios, compared to LRRK2 pS910/pS935, 14-3-3ε ([2]; Figure 4 panel b, 14-3-3ε): 8145.16
KD ratios, compared to LRRK2 pS910/pS935, 14-3-3ζ ([2]; Figure 4 panel b): 4666.67
KD ratios, compared to LRRK2 pS910/pS935, 14-3-3η ([2]; Figure 4 panel b): 4916.67
KD ratios, compared to LRRK2 pS910/pS935, 14-3-3σ ([2]; Figure 4 panel b, 14-3-3σ): 2293.73
KD ratios, compared to LRRK2 pS910/pS935, 14-3-3τ ([2]; Figure 4 panel b): 3978.95
KD ratios, compared to LRRK2 pS910/pS935, average ([2]; Figure 4 panel b): 4200.00
KD ratios, compared to 14-3-3γ, 14-3-3β ([2]; Figure 4 panel c): 3.84
KD ratios, compared to 14-3-3γ, 14-3-3γ ([2]; Figure 4 panel c): 1.00
KD ratios, compared to 14-3-3γ, 14-3-3ε ([2]; Figure 4 panel c, 14-3-3ε): 9.18
KD ratios, compared to 14-3-3γ, 14-3-3ζ ([2]; Figure 4 panel c): 2.04
KD ratios, compared to 14-3-3γ, 14-3-3η ([2]; Figure 4 panel c): 2.15
KD ratios, compared to 14-3-3γ, 14-3-3σ ([2]; Figure 4 panel c, 14-3-3σ): 12.64
KD ratios, compared to 14-3-3γ, 14-3-3τ ([2]; Figure 4 panel c): 3.44
binding to 14-3-3 proteins [2]: detectably bound

CC(C)C[C@H](NC(=O)[C@H](CCC(N)=O)NC(=O)[C@@H](NC(=O)[C@H](CCC(=O)O)NC(=O)[C@H](CCCNC(=N)N)NC(=O)[C@H](CCCNC(=N)N)NC(=O)[C@@H](NC(=O)[C@H](CCCNC(=N)N)NC(=O)[C@H](CO)NC(=O)[C@H](CO)NC(=O)CCC(=O)NCCCOCCOCCOCCCNC(=O)CCCC[C@@H]1SC[C@@H]2NC(=O)N[C@@H]21)[C@@H](C)O)[C@@H](C)OP(=O)(O)O)C(=O)O [pHPV16E6]
Kd [1]: 73.6 ± 19.1 µM
KD ratios, compared to LRRK2 pS910/pS935, 14-3-3β ([2]; Figure 4 panel b): 7536
KD ratios, compared to LRRK2 pS910/pS935, 14-3-3γ ([2]; Figure 4 panel b): 11625
KD ratios, compared to LRRK2 pS910/pS935, 14-3-3ζ ([2]; Figure 4 panel b): 15333
KD ratios, compared to LRRK2 pS910/pS935, 14-3-3η ([2]; Figure 4 panel b): 16771
KD ratios, compared to LRRK2 pS910/pS935, 14-3-3τ ([2]; Figure 4 panel b): 15158
KD ratios, compared to LRRK2 pS910/pS935, average ([2]; Figure 4 panel b): 13000
KD ratios, compared to 14-3-3γ, 14-3-3β ([2]; Figure 4 panel c): 4.27
KD ratios, compared to 14-3-3γ, 14-3-3γ ([2]; Figure 4 panel c): 1.00
KD ratios, compared to 14-3-3γ, 14-3-3ζ ([2]; Figure 4 panel c): 1.98
KD ratios, compared to 14-3-3γ, 14-3-3η ([2]; Figure 4 panel c): 2.16
KD ratios, compared to 14-3-3γ, 14-3-3τ ([2]; Figure 4 panel c): 3.87
binding to 14-3-3 proteins [2]: detectably bound

CC(C)[C@H](NC(=O)[C@H](CCC(=O)O)NC(=O)[C@@H](NC(=O)[C@H](CCC(=O)O)NC(=O)[C@H](CCCNC(=N)N)NC(=O)[C@H](CCCNC(=N)N)NC(=O)[C@@H](NC(=O)[C@@H]1CCCN1C(=O)[C@H](CCCCN)NC(=O)[C@H](CO)NC(=O)CCC(=O)NCCCOCCOCCOCCCNC(=O)CCCC[C@@H]1SC[C@@H]2NC(=O)N[C@@H]21)[C@@H](C)O)[C@@H](C)OP(=O)(O)O)C(=O)O [pHPV35E6] ({X1-Suc}-SKPTRRE[pT]EV-OH)
Kd [3]: 163 ± 19 µM
binding to 14-3-3 proteins [2]: detectably bound
